Test in all cases: relative viability (nuclei count vs DMSO), 5 days (fraction); higher = more cells survive
Compound in experiment [1]: C1=CC=C(C(=C1)C2=CC=C(C=C2)C3=CSC4=C3C(=C(C(=O)N4)C#N)O)O + CC(=O)Nc1cccc(-n2c(=O)n(C3CC3)c(=O)c3c(Nc4ccc(I)cc4F)n(C)c(=O)c(C)c32)c1 [Trametinib] (partner 0.02 µM)
Put shortly:
(§1)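 Relative viability divides the nuclei count in treated wells by that in vehicle wells. Lung cancer cell lines were seeded in 1536-well plates, dosed by pin tool the next day, and fixed and stained after 5 days in one step with final 0.05% Triton X-100, 1% formaldehyde and 1 ug/ml Hoechst. Dosing was a single drug or a fixed anchor-drug dose plus five library-drug doses (not always all listed) in √10 steps, and values are medians of duplicate plates imaged at 4×.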

Compound in the experiment “TGX 221 + Trametinib”: CC1=CN2C(=O)C=C(N=C2C(=C1)C(C)NC3=CC=CC=C3)N4CCOCC4 [TGX 221] + CC(=O)Nc1cccc(-n2c(=O)n(C3CC3)c(=O)c3c(Nc4ccc(I)cc4F)n(C)c(=O)c(C)c32)c1 [Trametinib] (partner 0.02 µM)
Put shortly: as §1

Compound in the experiment “Ricolinostat + Olaparib”: O=C(CCCCCCNC(=O)c1cnc(N(c2ccccc2)c2ccccc2)nc1)NO [Ricolinostat] + O=C(c1cc(Cc2n[nH]c(=O)c3ccccc23)ccc1F)N1CCN(C(=O)C2CC2)CC1 [Olaparib] (partner 8 µM)
Put shortly: as §1

Compound in the experiment “Ricolinostat + AZD7762”: O=C(CCCCCCNC(=O)c1cnc(N(c2ccccc2)c2ccccc2)nc1)NO [Ricolinostat] + NC(=O)Nc1cc(-c2cccc(F)c2)sc1C(=O)N[C@H]1CCCNC1 [AZD7762] (partner 0.2 µM)
In a few lines:
as §1

As to SW 1573, the relative viability turned out to be 0.608 in experiment [1] (first compound 0.08 µM); 0.522 in experiment [1] (first compound 0.253 µM); 0.654 in experiment [1] (first compound 0.8 µM); 0.659 in experiment [1] (first compound 2.53 µM); 0.434 in experiment [1] (first compound 8 µM); 0.518 in the experiment with TGX 221 + Trametinib (first compound 0.08 µM). Moreover, the relative viability with TGX 221 + Trametinib (first compound 0.253 µM) came out at 0.429; with TGX 221 + Trametinib (first compound 0.8 µM), 0.567; in the experiment with TGX 221 + Trametinib (first compound 2.53 µM), 0.382; with TGX 221 + Trametinib (first compound 8 µM), 0.442; with Ricolinostat + Olaparib (first compound 0.08 µM), 0.436; with Ricolinostat + Olaparib (first compound 0.253 µM), 0.508. Also, the relative viability with Ricolinostat + Olaparib (first compound 0.8 µM) is 0.534; with Ricolinostat + Olaparib (first compound 2.53 µM), 0.404.

NCI-H1703: the relative viability is 0.132 with Ricolinostat + AZD7762 (first compound 0.253 µM); 0.11 in the experiment with Ricolinostat + AZD7762 (first compound 2.53 µM); 0.426 with Ricolinostat + Olaparib (first compound 0.253 µM); 0.332 in the experiment with Ricolinostat + Olaparib (first compound 0.8 µM); 0.458 with Ricolinostat + Olaparib (first compound 2.53 µM).

As to SK-MES-1, the relative viability in experiment [1] (first compound 0.08 µM) was 0.588; in experiment [1] (first compound 0.253 µM) it was 0.625; in experiment [1] (first compound 0.8 µM), 0.582; in experiment [1] (first compound 2.53 µM), 0.554; in experiment [1] (first compound 8 µM) it was 0.551; in the experiment with TGX 221 + Trametinib (first compound 0.08 µM), 0.526. For the same cell line, the relative viability with TGX 221 + Trametinib (first compound 0.253 µM) amounted to 0.572; with TGX 221 + Trametinib (first compound 0.8 µM) it was 0.449; with TGX 221 + Trametinib (first compound 2.53 µM), 0.379; in the experiment with TGX 221 + Trametinib (first compound 8 µM), 0.339; with Ricolinostat + Olaparib (first compound 0.08 µM), 0.713; with Ricolinostat + Olaparib (first compound 0.253 µM) it was 0.712. In addition, the values for the relative viability with Ricolinostat + Olaparib (first compound 0.8 µM) and in the experiment with Ricolinostat + Olaparib (first compound 2.53 µM) were 0.691 and 0.681, respectively.

In the case of NCI-H2023, the relative viability was 0.364 in experiment [1] (first compound 0.08 µM); 0.584 in experiment [1] (first compound 0.253 µM); 0.708 in experiment [1] (first compound 0.8 µM); 0.535 in experiment [1] (first compound 2.53 µM); 0.466 in experiment [1] (first compound 8 µM); 0.55 in the experiment with TGX 221 + Trametinib (first compound 0.08 µM). Moreover, the relative viability with TGX 221 + Trametinib (first compound 0.253 µM) was 0.397; with TGX 221 + Trametinib (first compound 0.8 µM), 0.603; in the experiment with TGX 221 + Trametinib (first compound 2.53 µM) it was 0.469; in the experiment with TGX 221 + Trametinib (first compound 8 µM), 0.35; with Ricolinostat + Olaparib (first compound 0.08 µM) it was 0.485; in the experiment with Ricolinostat + Olaparib (first compound 0.253 µM) it was 0.447. Moreover, the relative viability is 0.407 in the experiment with Ricolinostat + Olaparib (first compound 0.8 µM) and 0.239 in the experiment with Ricolinostat + Olaparib (first compound 2.53 µM).

Turning to COR-L 105, the relative viability in experiment [1] (first compound 0.08 µM) was found to be 0.466; in experiment [1] (first compound 0.253 µM) it was 0.46; in experiment [1] (first compound 0.8 µM) it was 0.482; in experiment [1] (first compound 2.53 µM), 0.444; in experiment [1] (first compound 8 µM), 0.408; with TGX 221 + Trametinib (first compound 0.08 µM), 0.501. The relative viability worked out at 0.431 with TGX 221 + Trametinib (first compound 0.253 µM); 0.482 in the experiment with TGX 221 + Trametinib (first compound 0.8 µM); 0.43 with TGX 221 + Trametinib (first compound 2.53 µM); 0.419 with TGX 221 + Trametinib (first compound 8 µM); 0.61 in the experiment with Ricolinostat + Olaparib (first compound 0.08 µM); 0.686 with Ricolinostat + Olaparib (first compound 0.253 µM). The relative viability with Ricolinostat + Olaparib (first compound 0.8 µM) worked out at 0.797; in the experiment with Ricolinostat + Olaparib (first compound 2.53 µM), 0.962.

Regarding NCI-H520, the relative viability in experiment [1] (first compound 0.08 µM) stood at 0.5; in experiment [1] (first compound 0.253 µM), 0.733; in experiment [1] (first compound 0.8 µM), 0.779; in experiment [1] (first compound 2.53 µM), 0.613; in experiment [1] (first compound 8 µM) it was 0.443; with TGX 221 + Trametinib (first compound 0.08 µM), 0.521. Besides, the relative viability with TGX 221 + Trametinib (first compound 0.253 µM) amounted to 0.591; with TGX 221 + Trametinib (first compound 0.8 µM), 0.744; in the experiment with TGX 221 + Trametinib (first compound 2.53 µM), 0.597; with TGX 221 + Trametinib (first compound 8 µM) it was 0.505; in the experiment with Ricolinostat + Olaparib (first compound 0.253 µM) it was 0.305; in the experiment with Ricolinostat + Olaparib (first compound 0.8 µM), 0.343. Moreover, in the experiment with Ricolinostat + Olaparib (first compound 2.53 µM), the relative viability stood at 0.271.

As to ABC-1, the relative viability with Ricolinostat + AZD7762 (first compound 0.08 µM) is 0.945; with Ricolinostat + AZD7762 (first compound 0.253 µM), 0.788; in the experiment with Ricolinostat + AZD7762 (first compound 0.8 µM) it was 0.748; with Ricolinostat + AZD7762 (first compound 2.53 µM), 0.617; with Ricolinostat + Olaparib (first compound 0.08 µM) it was 0.781; in the experiment with Ricolinostat + Olaparib (first compound 0.253 µM) it was 1.05. For the same cell line, the relative viability was found to be 1.08 with Ricolinostat + Olaparib (first compound 0.8 µM) and 1.01 with Ricolinostat + Olaparib (first compound 2.53 µM).

Turning to Calu-6, the relative viability was 0.548 with Ricolinostat + Olaparib (first compound 0.08 µM), 0.526 with Ricolinostat + Olaparib (first compound 0.253 µM), 0.562 in the experiment with Ricolinostat + Olaparib (first compound 0.8 µM) and 0.419 with Ricolinostat + Olaparib (first compound 2.53 µM).

As to NCI-H2228, the relative viability was found to be 0.342 in experiment [1] (first compound 0.08 µM); 0.459 in experiment [1] (first compound 0.253 µM); 0.544 in experiment [1] (first compound 0.8 µM); 0.458 in experiment [1] (first compound 2.53 µM); 0.465 in experiment [1] (first compound 8 µM); 0.518 in the experiment with TGX 221 + Trametinib (first compound 0.08 µM). Moreover, the relative viability in the experiment with TGX 221 + Trametinib (first compound 0.253 µM) worked out at 0.526; in the experiment with TGX 221 + Trametinib (first compound 0.8 µM), 0.801; with TGX 221 + Trametinib (first compound 2.53 µM), 0.379; in the experiment with TGX 221 + Trametinib (first compound 8 µM), 0.489; in the experiment with Ricolinostat + Olaparib (first compound 0.08 µM) it was 0.647; with Ricolinostat + Olaparib (first compound 0.253 µM) it was 0.548. Further, the relative viability is 0.476 in the experiment with Ricolinostat + Olaparib (first compound 0.8 µM) and 0.45 with Ricolinostat + Olaparib (first compound 2.53 µM).

On to NCI-H2009, for which the relative viability was 0.226 in experiment [1] (first compound 0.08 µM); 0.268 in experiment [1] (first compound 0.253 µM); 0.333 in experiment [1] (first compound 0.8 µM); 0.249 in experiment [1] (first compound 2.53 µM); 0.295 in experiment [1] (first compound 8 µM); 0.25 with TGX 221 + Trametinib (first compound 0.08 µM). The relative viability was determined as 0.196 with TGX 221 + Trametinib (first compound 0.253 µM); 0.204 with TGX 221 + Trametinib (first compound 0.8 µM); 0.152 with TGX 221 + Trametinib (first compound 2.53 µM); 0.173 with TGX 221 + Trametinib (first compound 8 µM); 0.67 with Ricolinostat + Olaparib (first compound 0.08 µM); 0.663 in the experiment with Ricolinostat + Olaparib (first compound 0.253 µM). Further, the relative viability in the experiment with Ricolinostat + Olaparib (first compound 0.8 µM) was found to be 0.623; with Ricolinostat + Olaparib (first compound 2.53 µM), 0.457.

Regarding A549, the relative viability stood at 0.252 with Ricolinostat + Olaparib (first compound 0.253 µM), 0.286 with Ricolinostat + Olaparib (first compound 0.8 µM) and 0.139 in the experiment with Ricolinostat + Olaparib (first compound 2.53 µM).

On to IA-LM, for which the relative viability came to 0.728 with Ricolinostat + Olaparib (first compound 0.08 µM), 0.92 with Ricolinostat + Olaparib (first compound 0.253 µM), 0.737 in the experiment with Ricolinostat + Olaparib (first compound 0.8 µM) and 0.586 with Ricolinostat + Olaparib (first compound 2.53 µM).

Regarding COR-L23, the relative viability in experiment [1] (first compound 0.08 µM) worked out at 0.669; in experiment [1] (first compound 0.253 µM), 0.716; in experiment [1] (first compound 0.8 µM) it was 0.76; in experiment [1] (first compound 2.53 µM) it was 0.552; in experiment [1] (first compound 8 µM), 0.521; in the experiment with TGX 221 + Trametinib (first compound 0.08 µM), 0.507. For the same cell line, the relative viability in the experiment with TGX 221 + Trametinib (first compound 0.253 µM) came out at 0.592; with TGX 221 + Trametinib (first compound 0.8 µM), 0.573; with TGX 221 + Trametinib (first compound 2.53 µM), 0.577; with TGX 221 + Trametinib (first compound 8 µM), 0.523; with Ricolinostat + Olaparib (first compound 0.08 µM) it was 0.247; with Ricolinostat + Olaparib (first compound 0.253 µM) it was 0.315. In addition, the relative viability with Ricolinostat + Olaparib (first compound 0.8 µM) worked out at 0.267; in the experiment with Ricolinostat + Olaparib (first compound 2.53 µM), 0.168.

Source of the values: the supplement of paper PMC10307832.
